Like-named read-outs stand apart in the source and are kept apart here. Blank lines part the entries; values can stand above or below the molecule they belong to.
Key:
[1] = biological target: T1, human concentrative nucleoside transporter 3 (hCNT3) (Homo sapiens, UniProt Q9HAS3); assay: cold competition of [3H]-ribavirin uptake in oocytes; assay type: cell-based
T1 sequence (Q9HAS3 1-691): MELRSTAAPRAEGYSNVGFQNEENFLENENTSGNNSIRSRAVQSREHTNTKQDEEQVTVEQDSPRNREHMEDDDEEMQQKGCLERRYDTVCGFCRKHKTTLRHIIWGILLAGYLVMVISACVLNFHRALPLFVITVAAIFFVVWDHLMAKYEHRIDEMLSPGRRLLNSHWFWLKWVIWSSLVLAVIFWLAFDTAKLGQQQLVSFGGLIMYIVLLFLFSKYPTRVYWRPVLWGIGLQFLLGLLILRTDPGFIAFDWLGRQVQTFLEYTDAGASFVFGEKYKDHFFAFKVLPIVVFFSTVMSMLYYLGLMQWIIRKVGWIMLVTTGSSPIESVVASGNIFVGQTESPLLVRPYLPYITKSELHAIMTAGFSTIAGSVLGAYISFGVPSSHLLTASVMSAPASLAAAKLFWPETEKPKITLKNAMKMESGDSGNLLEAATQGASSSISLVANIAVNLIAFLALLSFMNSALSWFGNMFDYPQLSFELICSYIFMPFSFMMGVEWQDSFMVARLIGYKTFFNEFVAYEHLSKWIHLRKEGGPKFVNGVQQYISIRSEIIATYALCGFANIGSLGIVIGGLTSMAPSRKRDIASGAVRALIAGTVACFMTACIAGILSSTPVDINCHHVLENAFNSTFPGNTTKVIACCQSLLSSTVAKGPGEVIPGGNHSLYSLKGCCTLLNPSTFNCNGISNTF

[2] = biological target: T1, human concentrative nucleoside transporter 3 (hCNT3); assay: as above; assay type: cell-based; remark: listed apart in the source
bovine CNT3 (bCNT3) [3] = biological target: T2, bovine CNT3 (bCNT3) (Bos taurus, UniProt F1MGR1); assay: cryo-EM structure; assay type: binding
T2 sequence (F1MGR1 1-699): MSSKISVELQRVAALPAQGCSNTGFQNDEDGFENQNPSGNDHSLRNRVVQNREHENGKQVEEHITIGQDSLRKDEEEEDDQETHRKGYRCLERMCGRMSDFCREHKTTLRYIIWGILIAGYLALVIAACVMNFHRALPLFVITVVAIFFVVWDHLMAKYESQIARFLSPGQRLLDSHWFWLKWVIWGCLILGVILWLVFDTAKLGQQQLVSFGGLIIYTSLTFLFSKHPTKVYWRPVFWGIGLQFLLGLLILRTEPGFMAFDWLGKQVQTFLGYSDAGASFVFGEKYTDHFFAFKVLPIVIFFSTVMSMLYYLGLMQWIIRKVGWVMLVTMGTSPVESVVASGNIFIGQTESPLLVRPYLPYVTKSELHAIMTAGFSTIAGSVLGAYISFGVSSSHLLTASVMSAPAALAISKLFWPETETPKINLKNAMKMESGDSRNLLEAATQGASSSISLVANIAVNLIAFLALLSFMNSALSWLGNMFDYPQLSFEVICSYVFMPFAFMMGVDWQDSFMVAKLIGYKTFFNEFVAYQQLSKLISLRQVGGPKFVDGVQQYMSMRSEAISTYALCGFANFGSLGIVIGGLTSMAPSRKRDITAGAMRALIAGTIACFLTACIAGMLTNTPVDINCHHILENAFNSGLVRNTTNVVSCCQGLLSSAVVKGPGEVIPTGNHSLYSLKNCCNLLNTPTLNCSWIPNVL

[4] = biological target: T1, human concentrative nucleoside transporter 3 (hCNT3); assay: cold competition of [3H]-ribavirin uptake in oocytes; assay type: cell-based; remark: listed apart in the source
bovine CNT3 (bCNT3) [5] = biological target: T2, bovine CNT3 (bCNT3); assay: cryo-EM structure; assay type: binding; remark: listed apart in the source
cryo-EM structure = biological target: the molecule itself; assay: cryo-EM structure

Molecule: CC(C)C(=O)OC[C@H]1O[C@@H](n2ccc(NO)nc2=O)[C@H](O)[C@@H]1O [MPV, molnupiravir]
IC50 [2]: ~54 µM

Molecule: C[C@@]1(F)[C@H](O)[C@@H](CO)O[C@H]1n1ccc(=O)[nH]c1=O [PSI-6206]
cryo-EM structure (2.69 Å), inward-facing state (bovine CNT3 (bCNT3) [5]): The quality of the maps enabled unambiguous modeling of nucleoside drugs for NHC, PSI-6206, and ribavirin

B1: Bos taurus concentrative nucleoside transporter 3 (CNT3) (natural protein, UniProt F1MGR1 1-699, looked up)
chain: MSSKISVELQRVAALPAQGCSNTGFQNDEDGFENQNPSGNDHSLRNRVVQNREHENGKQVEEHITIGQDSLRKDEEEEDDQETHRKGYRCLERMCGRMSDFCREHKTTLRYIIWGILIAGYLALVIAACVMNFHRALPLFVITVVAIFFVVWDHLMAKYESQIARFLSPGQRLLDSHWFWLKWVIWGCLILGVILWLVFDTAKLGQQQLVSFGGLIIYTSLTFLFSKHPTKVYWRPVFWGIGLQFLLGLLILRTEPGFMAFDWLGKQVQTFLGYSDAGASFVFGEKYTDHFFAFKVLPIVIFFSTVMSMLYYLGLMQWIIRKVGWVMLVTMGTSPVESVVASGNIFIGQTESPLLVRPYLPYVTKSELHAIMTAGFSTIAGSVLGAYISFGVSSSHLLTASVMSAPAALAISKLFWPETETPKINLKNAMKMESGDSRNLLEAATQGASSSISLVANIAVNLIAFLALLSFMNSALSWLGNMFDYPQLSFEVICSYVFMPFAFMMGVDWQDSFMVAKLIGYKTFFNEFVAYQQLSKLISLRQVGGPKFVDGVQQYMSMRSEAISTYALCGFANFGSLGIVIGGLTSMAPSRKRDITAGAMRALIAGTIACFLTACIAGMLTNTPVDINCHHILENAFNSGLVRNTTNVVSCCQGLLSSAVVKGPGEVIPTGNHSLYSLKNCCNLLNTPTLNCSWIPNVL
stoichiometry N (cryo-EM structure): 3

Continued, in another order:

IC50 [1]: ~400 µM
Molecule: N#C[C@@]1(c2ccc3c(N)ncnn23)O[C@H](CO)[C@@H](O)[C@H]1O [GS4, GS-441524]

IC50 [4]: ~13 µM
Molecule: O=c1nc(NO)ccn1[C@@H]1O[C@H](CO)[C@@H](O)[C@H]1O [NHC, N^4-hydroxycytidine]
cryo-EM structure (2.74 Å), inward-facing state (bovine CNT3 (bCNT3) [3]): This substituent interacts with S380 in the bCNT3-NHC structure

Reference: PMC11625470 (Nature chemical biology, 2024)
